Data: article PMC6522510 (Nature Communications, 2019)
Several values for one entry are separate records, joined by “and”; a condition that tells them apart may be missing. Equal entries are not always repeated. Where two headings read alike, the source gives them in different places.

Columns and labels:
ML-2 [1] = experiment: cells; parameters: species or system AML cell lines (8); Secondary HTS, 10-point dose-response in triplicate, Cell Titer Glo viability, four-parameter fit EC50; settings: Homo sapiens, ML-2, 72 h, read-out: ML-2
CHRF288-11 [2] = experiment: cells; parameters: species or system AML cell lines (8); Secondary HTS, 10-point dose-response in triplicate, Cell Titer Glo viability, four-parameter fit EC50; settings: 72 h, read-out: CHRF288-11
U937 [3] = experiment: cells; parameters: species or system AML cell lines (8); Secondary HTS, 10-point dose-response in triplicate, Cell Titer Glo viability, four-parameter fit EC50; settings: Homo sapiens, U-937, 72 h, read-out: U937
MV4-11 [4] = experiment: cells; parameters: species or system AML cell lines (8); Secondary HTS, 10-point dose-response in triplicate, Cell Titer Glo viability, four-parameter fit EC50; settings: Homo sapiens, MV4-11, 72 h, read-out: MV4-11
MOLM-13 [5] = experiment: cells; parameters: species or system AML cell lines (8); Secondary HTS, 10-point dose-response in triplicate, Cell Titer Glo viability, four-parameter fit EC50; settings: Homo sapiens, MOLM-13, 72 h, read-out: MOLM-13
M07e [6] = experiment: Secondary dose-response HTS, Cell Titer Glo; format: cell-based, human; settings: Homo sapiens, M-07e, read-out: average effective concentration, M07e
CMK [7] = experiment: cells; parameters: species or system AML cell lines (8); Secondary HTS, 10-point dose-response in triplicate, Cell Titer Glo viability, four-parameter fit EC50; settings: Homo sapiens, CMK, 72 h, read-out: CMK
CMS [8] = experiment: Secondary dose-response HTS, Cell Titer Glo; format: cell-based, human; settings: Homo sapiens, HTS, read-out: average effective concentration, CMS
CHRF288-11 [9] = experiment: Secondary dose-response HTS, Cell Titer Glo; format: cell-based, human; settings: Homo sapiens, HTS, read-out: average effective concentration, CHRF288-11
CMK [10] = experiment: Secondary dose-response HTS, Cell Titer Glo; format: cell-based, human; settings: Homo sapiens, CMK, read-out: average effective concentration, CMK
MOLM-13 [11] = experiment: Secondary dose-response HTS, Cell Titer Glo; format: cell-based, human
MV4-11 [12] = experiment: cells; parameters: species or system AML cell lines (8); settings: Homo sapiens, MV4-11, 72 h, read-out: MV4-11
MOLM-13 [13] = experiment: cells; parameters: species or system AML cell lines (8); Secondary HTS, 10-point dose-response in triplicate, Cell Titer Glo viability, four-parameter fit EC50; settings: Homo sapiens, read-out: MOLM-13
U937 [14] = experiment: Secondary dose-response HTS, Cell Titer Glo; format: cell-based, human; settings: Homo sapiens
MV4-11 [15] = experiment: Secondary dose-response HTS, Cell Titer Glo; format: cell-based, human
ML2 = experiment: Secondary dose-response HTS, Cell Titer Glo; format: cell-based, human; settings: Homo sapiens
MOLM-13 [16] = test system: MOLM-13; parameters: species or system AML cell lines (8); Primary HTS, single concentration about 10 uM, Cell Titer Glo viability; log10 luminescence, per cent inhibition relative to cycloheximide control; settings: 72 h, 10 µM, inhibitor
ML-2 [17] = test system: ML-2; parameters: species or system AML cell lines (8); Primary HTS, single concentration about 10 uM, Cell Titer Glo viability; log10 luminescence, per cent inhibition relative to cycloheximide control
MV4-11 [18] = test system: MV4-11; parameters: species or system AML cell lines (8); Primary HTS, single concentration about 10 uM, Cell Titer Glo viability; log10 luminescence, per cent inhibition relative to cycloheximide control; settings: 72 h, 10 µM, inhibitor
U937 [19] = test system: U937; parameters: species or system AML cell lines (8); Primary HTS, single concentration about 10 uM, Cell Titer Glo viability; log10 luminescence, per cent inhibition relative to cycloheximide control; settings: 72 h, 10 µM, inhibitor
CMS [20] = test system: CMS; parameters: species or system AML cell lines (8); Primary HTS, single concentration about 10 uM, Cell Titer Glo viability; log10 luminescence, per cent inhibition relative to cycloheximide control; settings: 72 h, 10 µM, inhibitor
M07e [21] = test system: M07e; parameters: species or system AML cell lines (8); Primary HTS, single concentration about 10 uM, Cell Titer Glo viability; log10 luminescence, per cent inhibition relative to cycloheximide control; settings: 72 h, 10 µM, inhibitor
CMK [22] = test system: CMK; parameters: species or system AML cell lines (8); Primary HTS, single concentration about 10 uM, Cell Titer Glo viability; log10 luminescence, per cent inhibition relative to cycloheximide control; settings: 72 h, 10 µM, inhibitor
CHRF288-11 [23] = test system: CHRF288-11; parameters: species or system AML cell lines (8); Primary HTS, single concentration about 10 uM, Cell Titer Glo viability; log10 luminescence, per cent inhibition relative to cycloheximide control; settings: 72 h, 10 µM, inhibitor
CMS [24] = experiment: cells; parameters: species or system AML cell lines (8); Secondary HTS, 10-point dose-response in triplicate, Cell Titer Glo viability, four-parameter fit EC50; settings: 72 h, read-out: CMS
[25] = secondary high-throughput screen, M07e
[26] = secondary high-throughput screen, CMS
[27] = secondary high-throughput screen, CHRF288-11
[28] = secondary high-throughput screen
[29] = secondary high-throughput screen, MOLM-13
[30] = secondary high-throughput screen, […]
[31] = U-937, secondary high-throughput screen, U937, read-out: average effective concentration, U937
[32] = secondary high-throughput screen, MV4-11
[33] = secondary high-throughput screen, ML-2, read-out: average effective concentration, ML-2

Structure (SMILES) | EC50 (ML-2 [1]) [µM] | EC50 (CHRF288-11 [2]) [µM] | EC50 (U937 [3]) [µM] | EC50 (MV4-11 [4]) [µM] | EC50 (MOLM-13 [5]) [µM] | EC50 (M07e [6]; [25]) [nM] | EC50 (CMK [7]) [µM] | EC50 (CMS [8]; [26]) [nM] | EC50 (U937 [14]; [31]) [nM] | EC50 (CMS [24]) [µM] | further results
CCn1c(C(=O)N(C2CC2)C2CC2)cc2c3c(ncn3C)c(Nc3cc(C)n(C)n3)nc21 [BMS-911543] | > 10 | > 10 | > 10 | > 10 | > 10 | 8700 | > 10 | 5000 | – | – | –
CC1=C(O)C(=O)C=C2C1=CC=C1[C@@]2(C)CC[C@@]2(C)[C@@H]3C[C@](C)(C(=O)O)CC[C@]3(C)CC[C@]12C [CELASTROL] | – | – | – | – | – | – | – | 64 | 79 | – | EC50 (CHRF288-11 [9]; [27]): 75 nM; EC50 (CMK [10]; [28]): 69 nM; average effective concentration, MOLM-13 (MOLM-13 [11]; [29]): Inactive; EC50 (MV4-11 [12]): > 10 µM; EC50 (MOLM-13 [13]; 72 h cell viability): > 10 µM; EC50 (M07e [6]; [30]): 940 nM; average effective concentration, MV4-11 (MV4-11 [15]; [32]): Inactive; EC50 (ML2; [33]): 67 nM
CN1C(=O)[C@]23CC4=CC=C[C@H](O)[C@H]4N2C(=O)[C@@]1(CO)SS3 [GLIOTOXIN] | – | – | – | – | – | – | – | 26 | 12 | – | EC50 (CHRF288-11 [9]; [27]): 24 nM; MOLM-13 %inh (MOLM-13 [16]): 95.14% and 103.3%; ML-2 %inh (ML-2 [17]; 72 h, 10 µM, inhibitor): 66.31%; ML-2 %inh (ML-2 [17]; 72 h, 10 µM; inhibitor): 62.11%; EC50 (CMK [10]; [28]): 16 nM; MV4-11 %inh (MV4-11 [18]): 84.27% and 75%; average effective concentration, MOLM-13 (MOLM-13 [11]; [29]): Inactive; EC50 (MV4-11 [12]): > 10 µM; U937 %inh (U937 [19]): 86.1% and 87.37%; EC50 (MOLM-13 [13]; 72 h cell viability): > 10 µM; CMS %inh (CMS [20]): 108.9% and 102.6%; EC50 (M07e [6]; [30]): 130 nM; M07e %inh (M07e [21]): 143.7% and 136.2%; average effective concentration, MV4-11 (MV4-11 [15]; [32]): Inactive; CMK %inh (CMK [22]): 129.2% and 125%; CHRF288-11 %inh (CHRF288-11 [23]): 141.2% and 155.7%; EC50 (ML2; [33]): 25 nM
CC(C)Oc1ccc(C(=O)N[C@H](CNC(=O)CN(C)C)Cc2ccc(-c3cn4cccc([C@H](C)O)c4n3)cc2)cc1Cl [GSK-923295] | 0.0077 | > 10 | – | > 10 | > 10 | 140 | > 10 | – | 1 | – | EC50 (CMS [8]): 11 nM
C=C1C(=O)O[C@@H]2C[C@@H](C)[C@@H]3C=CC(=O)[C@@]3(C)[C@@H](O)[C@H]12 [HELENALIN] | – | – | – | – | – | – | – | – | – | – | EC50 (CHRF288-11 [9]): 170 nM; EC50 (CMK [10]): 190 nM; average effective concentration, MOLM-13 (MOLM-13 [11]): Inactive; EC50 (MV4-11 [12]): > 10 µM; EC50 (MOLM-13 [13]; 72 h cell viability): > 10 µM; EC50 (M07e [6]): 340 nM; EC50 (U937 [14]; U-937, read-out: average effective concentration, U937): 170 nM; average effective concentration, MV4-11 (MV4-11 [15]): Inactive; EC50 (CMS [8]): 210 nM; EC50 (ML2; ML-2, read-out: average effective concentration, ML-2): 130 nM
CC(C)C[C@H](NC(=O)CNC(=O)c1cc(Cl)ccc1Cl)B(O)O [IXAZOMIB] | 0.0052 | – | – | > 10 | 0.0067 | 11 | – | 5.6 | 10 | – | EC50 (CHRF288-11 [9]; [27]): 10 nM; EC50 (CMK [10]; [28]): 7 nM
C[C@]12O[C@H](C[C@]1(O)CO)n1c3ccccc3c3c4c(c5c6ccccc6n2c5c31)CNC4=O [LESTAURTINIB] | – | – | – | – | – | 1 | – | 7.55 | 41 | – | EC50 (CHRF288-11 [9]; [27]): 110 nM; EC50 (CMK [10]; [28]): 3.3 nM; EC50 (MOLM-13 [13]; 72 h cell viability): > 10 µM; EC50 (MV4-11 [15]; Homo sapiens, secondary high-throughput screen, MV4-11, read-out: average effective concentration, MV4-11): 3.2 µM; EC50 (ML2; [33]): 320 nM
O=c1cc(N2CCOCC2)oc2c(-c3ccccc3)cccc12 [LY-294002] | > 10 | > 10 | > 10 | > 10 | > 10 | > 10000 | > 10 | > 10000 | – | – | –
Cc1cn(-c2cc(NC(=O)c3ccc(C)c(Nc4nccc(-c5cccnc5)n4)c3)cc(C(F)(F)F)c2)cn1 [NILOTINIB] | > 10 | > 10 | > 10 | > 10 | > 10 | > 10000 | > 10 | – | – | > 10 | –
CCCc1nc(C(C)(C)O)c(C(=O)OCc2oc(=O)oc2C)n1Cc1ccc(-c2ccccc2-c2nnn[nH]2)cc1 [OLMESARTAN MEDOXOMIL] | > 10 | > 10 | > 10 | > 10 | > 10 | 5800 | > 10 | – | – | > 10 | MOLM-13 %inh (MOLM-13 [16]; relative to cycloheximide control, log10 luminescence, MOLM-13 %inh): 3.566% and -1.782%; ML-2 %inh (ML-2 [17]; 72 h, relative to cycloheximide control, log10 luminescence, inhibitor, ML-2 %inh, 10 µM): 0.6032% and 1.808%; MV4-11 %inh (MV4-11 [18]; relative to cycloheximide control, log10 luminescence, MV4-11 %inh): 1.21% and -0.1295%; U937 %inh (U937 [19]; relative to cycloheximide control, log10 luminescence, U937 %inh): -0.6807% and -1.42%; CMS %inh (CMS [20]; relative to cycloheximide control, log10 luminescence, CMS %inh): -4.154% and -3.286%; M07e %inh (M07e [21]; relative to cycloheximide control, log10 luminescence, M07e %inh): -0.6363% and -1.428%; CMK %inh (CMK [22]; relative to cycloheximide control, log10 luminescence, CMK %inh): 0.5387% and -8.221%
O=C1CCC[C@@H]2[C@H]3CCC[N+]4([O-])CCC[C@@H](CN12)[C@@H]34 (some centres unmarked) [OXYMATRINE] | > 10 | > 10 | > 10 | > 10 | > 10 | 58 | > 10 | – | – | > 10 | –
COc1cccc2c1c(O)c(C(=O)N(C)c1ccc(C(F)(F)F)cc1)c(=O)n2C [TASQUINIMOD] | > 10 | > 10 | > 10 | > 10 | > 10 | 1200 | > 10 | – | – | > 10 | –
CS(=O)(=O)c1ccc(-c2cnc(N)c(C(=O)Nc3ccccc3)n2)cc1 [VE-821] | > 10 | > 10 | > 10 | > 10 | > 10 | 6700 | > 10 | – | – | > 10 | –
COC(=O)[C@]1(C)CC[C@]2(C)CC[C@]3(C)C4=CC=C5C(=CC(=O)C(O)=C5C)[C@]4(C)CC[C@@]3(C)[C@@H]2C1 [[…]] | – | – | – | – | – | – | – | – | – | – | EC50 (MV4-11 [12]): > 10 µM; EC50 (MOLM-13 [13]; MOLM-13, 72 h): > 10 µM
